Results published in US20040024024A1, “Aromatic sulfone hydroxamates and their use as protease inhibitors” (priority 2001, published 2004).

Assays:
Human recombinant MMP-2 = molecular target: T1, Human recombinant MMP-2 (Homo sapiens, UniProt P08253); assay: In vitro MMP inhibition, Ki determination (fluorogenic substrate II); type: biochemical
T1 construct: made in house; host or cells: MMP-2-transfected p2AHT2 cells
T1 sequence (P08253 110-660): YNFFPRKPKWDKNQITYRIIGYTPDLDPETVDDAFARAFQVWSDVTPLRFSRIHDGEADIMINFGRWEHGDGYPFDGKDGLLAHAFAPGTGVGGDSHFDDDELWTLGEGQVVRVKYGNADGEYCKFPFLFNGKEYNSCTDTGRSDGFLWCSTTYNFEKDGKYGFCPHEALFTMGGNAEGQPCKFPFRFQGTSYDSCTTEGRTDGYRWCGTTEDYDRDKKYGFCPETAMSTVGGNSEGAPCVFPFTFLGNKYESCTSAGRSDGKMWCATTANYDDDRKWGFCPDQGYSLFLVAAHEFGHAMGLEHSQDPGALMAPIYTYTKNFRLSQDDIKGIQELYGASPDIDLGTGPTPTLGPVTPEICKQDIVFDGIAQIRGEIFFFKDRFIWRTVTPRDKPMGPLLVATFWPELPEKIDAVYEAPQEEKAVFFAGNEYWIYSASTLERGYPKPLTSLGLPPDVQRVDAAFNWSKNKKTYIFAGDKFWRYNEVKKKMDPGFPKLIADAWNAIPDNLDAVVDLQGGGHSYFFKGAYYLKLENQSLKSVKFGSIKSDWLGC

Human recombinant MMP-13 = molecular target: T2, Human recombinant MMP-13 (Homo sapiens, UniProt P45452); assay: as above; type: biochemical
T2 construct: made in house; host or cells: baculovirus / insect cells
Procedure, shortened: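 Baculovirus-expressed proenzyme, APMA-activated; 4 μM fluorogenic MCA/Dpa peptide substrate (II), at or below Km, in Tris buffer pH 7.5 with CaCl2, 1 hr at room temperature. Fluorescence at 330/420 nm; Ki from non-linear regression with Morrison's equation, not corrected for substrate.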

[1] = substrate (II) 4 μM, 1 hr room temperature, apparent Ki, values in parenthesis

| SMILES | Ki (Human recombinant MMP-2; value in parentheses) [nM] | Ki (Human recombinant MMP-13; value in parentheses) [nM] | also measured |
| --- | --- | --- | --- |
| CCN1CCC(C(=O)NO)(S(=O)(=O)c2ccc(OCCCc3cccc(-c4ccc(Cl)cc4)c3)cc2)CC1 [Example 526] | 1680 | 3.96 | – |
| COCCN1CCC(C(=O)NO)(S(=O)(=O)c2ccc(OCCCc3cccc(-c4ccc(F)c(F)c4)c3)cc2)CC1 [Example 52] | – | – | Ki (Human recombinant MMP-2; [1]): 543 nM; Ki (Human recombinant MMP-13; [1]): 0.81 nM |
| CCCCCCCOc1ccc(S(=O)(=O)C2(C(=O)NO)CCOCC2)cc1 [Example 507] | 0.84 | 0.19 | – |
| O=C(NO)C1(S(=O)(=O)c2ccc(OCCc3cccc(-c4cc(Cl)cc(Cl)c4)c3)cc2)CCOCC1 [Example 126] | – | – | Ki (Human recombinant MMP-2; value in parenthesis): 6360 nM; Ki (Human recombinant MMP-13; value in parenthesis): 81.3 nM |
| O=C(NO)C1(S(=O)(=O)c2ccc(OCCCc3ccc(F)c(-c4ccccc4)c3)cc2)CCOCC1 [Example 504] | 434 | 4.65 | – |
| COCCN1CCC(C(=O)NO)(S(=O)(=O)c2ccc(OCCCc3cccc(-c4cccs4)c3)cc2)CC1 [Example 510] | 7.85 | 0.25 | – |
| COCCN1CCC(C(=O)NO)(S(=O)(=O)c2ccc(OCCCc3cccc(-c4cccnc4)c3)cc2)CC1 [Example 509] | 89.3 | 0.297 | – |
| O=C(NO)C1(S(=O)(=O)c2ccc(OCCc3cccc(-c4cc(F)cc(F)c4)c3)cc2)CCOCC1 [Example 110] | – | – | Ki (Human recombinant MMP-2; value in parenthesis): 112 nM; Ki (Human recombinant MMP-13; value in parenthesis): 11.4 nM |
| O=C(NO)C1(S(=O)(=O)c2ccc(OCCCc3cccc(-c4ccc(O)cc4)c3)cc2)CCOCC1 [Example 529] | 3550 | 20.2 | – |
| O=C(NO)C1(S(=O)(=O)c2ccc(OCCCc3cccc(-c4ccc(Cl)c(Cl)c4)c3)cc2)CCOCC1 [Example 169] | – | – | Ki (Human recombinant MMP-2; value in parenthesis): 5360 nM; Ki (Human recombinant MMP-13; value in parenthesis): 20.4 nM |
| CCCCc1ccc(CCCOc2ccc(S(=O)(=O)C3(C(=O)NO)CCOCC3)cc2)cn1 [Example 533] | 29.3 | 0.226 | – |
| CCCC(=O)CCCOc1ccc(S(=O)(=O)C2(C(=O)NO)CCOCC2)cc1 [Example 505] | 2.56 | 0.81 | – |
| O=C(NO)C1(S(=O)(=O)c2ccc(OCCCc3nc(C4CCCCC4)no3)cc2)CCN(C2CC2)CC1 [Example 137] | – | – | Ki (Human recombinant MMP-2; value in parenthesis): 36.6 nM; Ki (Human recombinant MMP-13; value in parenthesis): 0.976 nM |
| O=C(NO)C1(S(=O)(=O)c2ccc(OCCc3cccc(-c4ccc(Cl)c(Cl)c4)c3)cc2)CCOCC1 [Example 121] | – | – | Ki (Human recombinant MMP-2; value in parenthesis): 4620 nM; Ki (Human recombinant MMP-13; value in parenthesis): 26.9 nM |
| COCCN1CCC(C(=O)NO)(S(=O)(=O)c2ccc(OCCCc3cncc(-c4ccccc4)c3)cc2)CC1 [Example 508] | 22.8 | 0.141 | – |
| Cc1ccc(-c2cccc(CCOc3ccc(S(=O)(=O)C4(C(=O)NO)CCOCC4)cc3)c2)cc1C [Example 117] | – | – | Ki (Human recombinant MMP-2; value in parenthesis): 3640 nM; Ki (Human recombinant MMP-13; value in parenthesis): 21 nM |
| COCCN1CCC(C(=O)NO)(S(=O)(=O)c2ccc(OCCCc3nc(-c4ccc(CC(C)C)cc4C)no3)cc2)CC1 [Example 128] | – | – | Ki (Human recombinant MMP-2; value in parenthesis): 1130 nM; Ki (Human recombinant MMP-13; value in parenthesis): 13.8 nM |
| COCCN1CCC(C(=O)NO)(S(=O)(=O)c2ccc(OCCCc3cccc(-c4ccc(C#N)cc4)c3)cc2)CC1 [Example 514] | 293 | 0.28 | – |
| CC(C)c1ccc(-c2cccc(CCOc3ccc(S(=O)(=O)C4(C(=O)NO)CCOCC4)cc3)c2)cc1 [Example 109] | – | – | Ki (Human recombinant MMP-2; value in parenthesis): 8100 nM; Ki (Human recombinant MMP-13; value in parenthesis): 93.1 nM |
| O=C(NO)C1(S(=O)(=O)c2ccc(OCCCc3cccc(-c4cc(Cl)cc(Cl)c4)c3)cc2)CCOCC1 [Example 172] | – | – | Ki (Human recombinant MMP-2; value in parenthesis): > 10000 nM; Ki (Human recombinant MMP-13; value in parenthesis): 71.1 nM |
| COCCN1CCC(C(=O)NO)(S(=O)(=O)c2ccc(OCCCc3nc(-c4ccc(C5(c6ccccc6)CC5)cc4)no3)cc2)CC1 [Example 185] | – | – | Ki (Human recombinant MMP-2; value in parenthesis): 116 nM; Ki (Human recombinant MMP-13; value in parenthesis): 3.73 nM |
| CCCCC(=O)CCCOc1ccc(S(=O)(=O)C2(C(=O)NO)CCOCC2)cc1 [Example 506] | 1.92 | 0.23 | – |
| COCCN1CCC(C(=O)NO)(S(=O)(=O)c2ccc(OCCCc3cccc(-c4ccc(Cl)cc4)c3)cc2)CC1 [Example 50] | – | – | Ki (Human recombinant MMP-2; [1]): 1130 nM; Ki (Human recombinant MMP-13; [1]): 0.6 nM |
| Cc1cc(-c2cccc(CCCOc3ccc(S(=O)(=O)C4(C(=O)NO)CCOCC4)cc3)c2)ccc1Cl [Example 166] | – | – | Ki (Human recombinant MMP-2; value in parenthesis): 8090 nM; Ki (Human recombinant MMP-13; value in parenthesis): 63.4 nM |
| COCCN1CCC(C(=O)NO)(S(=O)(=O)c2ccc(OCCCc3cccc(-c4ccccc4F)c3)cc2)CC1 [Example 512] | 758 | 1.07 | – |
| O=C(NO)C1(S(=O)(=O)c2ccc(OCCc3cccc(-c4cccc(F)c4)c3)cc2)CCOCC1 [Example 111] | – | – | Ki (Human recombinant MMP-2; value in parenthesis): 769 nM; Ki (Human recombinant MMP-13; value in parenthesis): 6.39 nM |
| Cc1ccccc1-c1cccc(CCOc2ccc(S(=O)(=O)C3(C(=O)NO)CCOCC3)cc2)c1 [Example 116] | – | – | Ki (Human recombinant MMP-2; value in parenthesis): 1250 nM; Ki (Human recombinant MMP-13; value in parenthesis): 5.1 nM |
| Cc1ccc(NC(=O)CCCOc2ccc(S(=O)(=O)C3(C(=O)NO)CCOCC3)cc2)cc1I [Example 527] | 21.3 | 0.044 | – |

More lines, main results first:

| Ki (Human recombinant MMP-2; value in parentheses) [nM] | Ki (Human recombinant MMP-13; value in parentheses) [nM] | SMILES | also measured |
| --- | --- | --- | --- |
| 504 | 1.87 | COCCN1CCC(C(=O)NO)(S(=O)(=O)c2ccc(OCCc3cccc(-c4ccc(F)c(F)c4)c3)cc2)CC1 [Example 549] | – |
| 302 | 0.898 | COCCN1CCC(C(=O)NO)(S(=O)(=O)c2ccc(OCCc3cccc(-c4ccc(F)cc4)c3)cc2)CC1 [Example 544] | – |
| 68.1 | 53.2 | O=C(NO)C1(S(=O)(=O)c2ccc(OCCc3ccccn3)cc2)CCOCC1 [Example 556] | – |
| 426 | 1.06 | COCCN1CCC(C(=O)NO)(S(=O)(=O)c2ccc(OCCc3cccc(-c4ccc(F)cc4F)c3)cc2)CC1 [Example 546] | – |
| 4.94 | 1.78 | CCc1ccc(COc2ccc(S(=O)(=O)C3(C(=O)NO)CCOCC3)cc2)cn1 [Example 552] | – |
| 5.49 | 0.52 | CCCc1ccc(COc2ccc(S(=O)(=O)C3(C(=O)NO)CCOCC3)cc2)cn1 [Example 550] | – |
| 241 | 2.97 | O=C(NCCOc1ccc(S(=O)(=O)C2(C(=O)NO)CCOCC2)cc1)c1c[nH]c2ccccc12 [Example 562] | – |
| 61.3 | 14.5 | O=C(NO)C1(S(=O)(=O)c2ccc(OCCOc3cncnc3)cc2)CCOCC1 [Example 554] | – |
| 10.3 | 0.616 | O=C(NO)C1(S(=O)(=O)c2ccc(OCCCOc3cccnc3)cc2)CCOCC1 [Example 560] | – |
| 1.58 | 0.38 | COCCN1CCC(C(=O)NO)(S(=O)(=O)c2ccc(OCCc3cccc(-c4ccccn4)c3)cc2)CC1 [Example 548] | – |
| 38.6 | 0.21 | COCCN1CCC(C(=O)NO)(S(=O)(=O)c2ccc(OCCc3cccc(-c4cccnc4)c3)cc2)CC1 [Example 539] | – |
| 7.8 | 0.259 | COCCN1CCC(C(=O)NO)(S(=O)(=O)c2ccc(OCCNC(=O)c3cc4ccccc4o3)cc2)CC1 [Example 553] | – |
| 6.46 | 3.68 | O=C(NO)C1(S(=O)(=O)c2ccc(OCCc3cccnc3)cc2)CCOCC1 [Example 557] | – |
| 124 | 0.23 | COCCN1CCC(C(=O)NO)(S(=O)(=O)c2ccc(OCCc3ccc(-c4ccc(C#N)cc4)cc3)cc2)CC1 [Example 543] | – |
| 744 | 3.4 | CN1CCC(C(=O)NO)(S(=O)(=O)c2ccc(SCCNC(=O)c3cc4ccccc4o3)cc2)CC1 [Example 536] | – |
| 289 | 0.16 | C#Cc1ccc(-c2cccc(CCCOc3ccc(S(=O)(=O)C4(C(=O)NO)CCN(CCOC)CC4)cc3)c2)cc1 [Example 646] | – |
| 270 | 0.58 | COCCN1CCC(C(=O)NO)(S(=O)(=O)c2ccc(OCCc3cccc(-c4ccccc4F)c3)cc2)CC1 [Example 540] | – |
| 23.2 | 0.261 | CCc1ccc(CCCOc2ccc(S(=O)(=O)C3(C(=O)NO)CCOCC3)cc2)cn1 [Example 535] | – |
